The results in this text go back to patent US5621000A, “Nitric esters having a pharmacological activity and process for their preparation” (priority 1992, dated 1997).

Read-outs that look alike come from different tables or passages of the source.

The subject of data set [1] is gastrointestinal ulcerogenicity. Briefly: Gastrointestinal ulcerability after oral administration. In kind it is in vivo, rat. The protocol: (§1) The anti-inflammatory and anti-platelet aggregation activity as well as the gastrointestinal ulcerogenicity, for instance of nitric esters having the following formulae, were tested by means of biological studies: [drawing 16]
The gastrointestinal ulcerability was evaluated by oral administration in the rat.
(§2) The anti-inflammatory and anti-platelet aggregation activity as well as the gastrointestinal ulcerability activity of said derivatives are given on Table 1, and are expressed, for each nitric ester indicated, as the power ratio relative to the corresponding acids non functionalized according to the general formula (I), according to this invention. Each value represents the mean of the values obtained by the treatment of 10 animals.

Data set [2] relates to prostaglandin E2 synthesis (gastric). Nature of the data set: Gastric prostaglandin synthesis. It counts as in vivo. As to conditions: for inhibition of gastric prostaglandin E2 synthesis: at the highest dose (5-20 mg/kg p.o.).
Data set [3] has as its system mouse. Nature of the data set: Preliminary acute toxicity in the mouse by two administration routes. The conditions noted are these: oral or intraperitoneal doses of 300 mg/kg. In kind it is in vivo.
The nature of data set [4]: in vivo. It counts as in vivo. As to conditions: in vivo, read-out: maximum tolerated dose: highest oral dose without apparent symptoms.
The test system of data set [5] is non rodents. Nature of the data set: in vivo. The conditions noted are these: for tolerability in non rodents: increasing oral doses up to 30 mg/kg, preliminary; for mortality in non rodents: 10 mg/kg, reference compounds. It counts as in vivo.
Data set [6] deals with gastric mucosa. Briefly: Rat gastric mucosa injury.
The nature of data set [7]: Rat gastric mucosa injury. The conditions noted are these: po.
Data set [8] deals with leukocyte adherence to mesenteric post-capillary venules. Briefly: Gastric leukocyte adherence/vessel diameter (intravital microscopy). The conditions noted are these: for blood pressure: one hour period after administration. In kind it is in vivo. The source says:
GASTRIC LEUKOCYTE ADHERENCE/VESSEL DIAMETER. […] J. Physiol.

Data set [9] deals with collagen-induced platelet aggregation. Briefly: In vivo platelet aggregation, collagen-induced. As to conditions: 20 mg/kg p.o. in the rat; for inhibition at 20 mg/kg: Platelet, po, versus controls. The source says: IN VIVO PLATELET AGGREGATION.
The subject of data set [10] is human platelets. Nature of the data set: Anti-platelet aggregation activity on platelets stimulated by arachidonic acid. In kind it is cell-based. As for the experimental part: as §1
The anti-inflammatory activity of said nitric esters was determined in Wistar rats utilizing the method of the carrageenan paw edema, as reported in C. A. WINTER, E. RISLEY, G. W. NUSS, Proc. Soc.
as §2

In data set [11] the test system is phenylquinone writhing. Briefly: Mouse phenylquinone writhing. It counts as in vivo. The conditions noted are these: 3 to 10 mg/kg p.o.
The subject of data set [12] is carrageenan paw edema. Nature of the data set: Carrageenan paw edema, anti-inflammatory activity. It counts as in vivo, Wistar rats. As to conditions: for ANTI-INFLAM. ACTIVITY (power ratio relative to the corresponding acid): carrageenan paw edema, Wistar rats, mean of 10 animals; for efficacy in rat carrageenan paw edema vs reference drugs: p.o., compared with Ketoprofen and Flurbiprofen. The protocol: as §1
The anti-inflammatory activity of said nitric esters was determined in Wistar rats utilizing the method of the carrageenan paw edema, as reported in C. A. WINTER, E. RISLEY, G. W. NUSS, Proc. Soc. Exp. Biol. Med. 111,544 (1962), while the anti-platelet aggregation activity of said derivatives was determined on human platelets stimulated by arachidonic acid, according to the method described by V. BERTELE et al., Science 220,517 (1983).
as §2

Data set [13] deals with prostaglandin E2 in exudate. Briefly: Prostaglandin synthesis in the inflammatory exudate (carrageenan sponge). As to conditions: for inhibition at 20 mg/kg: po, read-out: inhibition of the formation of prostaglandin E2 in exudate. It counts as in vivo. The text has this:
PROSTAGLANDIN SYNTHESIS IN THE INFLAMMATORY EXUDATE.
Subcutaneous implantation of carrageenan sponge elicits the infiltration of inflammatory cells, as reported in Nature 284, 271 (1980). […]

Data set [14] relates to plasma nitrate/nitrite levels. Nature of the data set: NO release: plasma nitrate/nitrite levels. In kind it is in vivo. As to conditions: for increase of plasma nitrate/nitrite levels: one hour after the administration; for effect on plasma nitrate/nitrite levels: reference compounds.
Data set [15] relates to adjuvant arthritis. Briefly: Rat adjuvant arthritis. It counts as in vivo. The conditions noted are these: 3 mg/kg p.o., 19 consecutive days (days 3 through 21 after adjuvant injection), compared to controls.
The test system of data set [16] is central nervous, autonomic, cardiovascular, respiratory and gastrointestinal systems. Briefly: General (secondary) pharmacology. The conditions noted are these: in comparison with Ketoprofen or Flurbiprofen. It counts as in vivo.
Data set [17] relates to gastric mucosa. As to conditions: rat, in vivo, po.
[18] abbreviates: oral administration in the rat, ratio to corresponding acid, mean of 10 animals.
[19] abbreviates: prior to and during one hour after administration, intravital microscopy.

`CC(C(=O)OCCCCO[N+](=O)[O-])c1cccc(C(=O)c2ccccc2)c1` (stereo not shown) [(XVIII), nitric ester of 2-(3-benzoilphenyl)propionate of 4-hydroxybutyl]: the “GASTRO-INTESTINAL ULCERABILITY (power ratio relative to the corresponding acid)” value in data set [1] (setting [18]) is reported as 0,20. Moreover, the “inhibition of gastric prostaglandin E2 synthesis relative to reference compounds” value in [2] (5-20 mg/kg p.o., vs Ketoprofen and Flurbiprofen) is “inhibited significantly and comparatively to the corresponding reference compounds”. For the same compound, in [2], the “inhibition of gastric prostaglandin E2 synthesis” value is recorded as “more than 90%”. Besides, in [3], the acute toxicity result is given as “No evident toxicity was observed”. Moreover, in data set [4] (po), the MTD was ≥ 30 mg/kg. Further, the “tolerability in non rodents” value in data set [5] is “very well tolerated”. Moreover, the “gastric tolerability relative to reference compounds” value in data set [6] (3 to 30 mg/kg p.o.) is reported as “significantly better tolerated than reference compounds”. The NOAEL in data set [7] (gastric mucosa) was ≥ 30 mg/kg. In [8], the blood pressure result was “No changes in blood pressure were observed”. Further, in data set [8] (setting [19]), the diameter of vessels result was “increasing the diameter of vessels significantly” and the “leukocyte adherence to post-capillary venules” value (“leukocyte adherence” for short) is “did not induce significant leukocyte adherence”. Also, in data set [9], the “inhibition of platelet aggregation, comparison with Flurbiprofen” value is on record as “significantly more effective than the latter” and the inhibition at 20 mg/kg came out at 66%. In addition, the “ANTI-AGGREG. ACTIVITY (power ratio relative to the corresponding acid)” value in [10] is recorded as 1,35. Moreover, in [11], the “efficaciousness in phenylquinone writhing relative to reference compounds” value is listed as “almost comparable with that of the corresponding reference compounds” and the “efficacy in phenylquinone writhing” value is “fully effective”. In data set [12], the “ANTI-INFLAM. ACTIVITY (power ratio relative to the corresponding acid)” value was 1,25 and the “efficacy in rat carrageenan paw edema vs reference drugs” value is given as “efficacy comparable with the corresponding reference drugs”. In addition, the “efficacy on exudate prostaglandin E2 relative to reference compounds” value in [13] (20 mg/kg p.o., vs Ketoprofen and Flurbiprofen) was “comparative efficacy to the corresponding reference compounds”. Moreover, the inhibition at 20 mg/kg in data set [13] (20 mg/kg p.o., compared with controls) was > 75%. Besides, in data set [14], the “increase of plasma nitrate/nitrite levels” value was “more than 50%”. For the same compound, the “reduction in the arthritic symptomatology” value in [15] is “significant and comparative reduction in the arthritic symptomatology”. For the same compound, the “additional adverse reactions (secondary pharmacological evaluation)” value in [16] is “No relevant additional adverse reactions were observed”.

In the case of `CC(C(=O)O)c1ccc(C(=O)c2cccs2)cc1` (stereo not shown) [Suprofen, reference compound], the “GASTRO-INTESTINAL ULCERABILITY (power ratio relative to the corresponding acid)” value in data set [1] (rat, in vivo, po) was determined as 1. Besides, the “ANTI-AGGREG. ACTIVITY (power ratio relative to the corresponding acid)” value in data set [10] worked out at 1. Also, in [12], the “ANTI-INFLAM. ACTIVITY (power ratio relative to the corresponding acid)” value came out at 1.

As for `CCC(C(=O)O)c1ccc(N2Cc3ccccc3C2=O)cc1` (stereo not shown) [Indobufen, reference compound], in data set [1] (setting [18]), the “GASTRO-INTESTINAL ULCERABILITY (power ratio relative to the corresponding acid)” value is on record as 1. Moreover, the “ANTI-AGGREG. ACTIVITY (power ratio relative to the corresponding acid)” value in data set [10] was found to be 1. In data set [12], the “ANTI-INFLAM. ACTIVITY (power ratio relative to the corresponding acid)” value is 1.

With `CC(C(=O)OCCCCO[N+](=O)[O-])c1ccc(-c2ccccc2)c(F)c1` (stereo not drawn) [(XII), nitric ester of 2-fluoro-alpha-methyl-4-diphenyl acetate of 4-hydroxybutyl], the “inhibition of gastric prostaglandin E2 synthesis” value in data set [2] is “more than 90%”. The MTD in data set [4] (oral, non rodents, increasing doses up to 30 mg/kg, preliminary) is ≥ 30 mg/kg. The “tolerability in non rodents” value in data set [5] is “very well tolerated”. Also, the no-observed-adverse-effect level (NOAEL) in [7] (in vivo) is ≥ 30 mg/kg. In data set [8], the blood pressure result was “No changes in blood pressure were observed”. Besides, in data set [8] (setting [19]), the diameter of vessels entry was “increasing the diameter of vessels significantly” and the “leukocyte adherence” value is recorded as “did not induce significant leukocyte adherence”. Besides, the “efficacy in phenylquinone writhing” value in data set [11] is “fully effective”. Besides, in [12], the “efficacy in rat carrageenan paw edema vs reference drugs” value is “efficacy comparable with the corresponding reference drugs”. For the same compound, in [13], the inhibition at 20 mg/kg is > 75%. Besides, the “increase of plasma nitrate/nitrite levels” value in data set [14] is reported as “more than 50%”. Further, the “reduction in the arthritic symptomatology” value in data set [15] was “significant and comparative reduction in the arthritic symptomatology”. Besides, the “additional adverse reactions (secondary pharmacological evaluation)” value in [16] was “No relevant additional adverse reactions were observed”.

As to `CC(C(=O)O)c1cccc(C(=O)c2ccccc2)c1` (stereo not shown) [Ketoprofen, 2-(3-benzoylphenyl)propionic acid, reference compound], the “mortality in non rodents” value in data set [5] is given as “caused the death of the animals”. Moreover, the “severity of gastric damages” value in [6] (3 to 30 mg/kg p.o.) was “dose-dependent”. Further, the “dose causing the onset of gastric damages” value in data set [6] (p.o.) is ≤ 3 mg/kg. Further, the “leukocyte adherence” value in [8] (setting [19]) is “Unlike Ketoprofen or Flurbiprofen, (XVIII) or (XII) did not induce significant leukocyte adherence”. Also, the “effect on plasma nitrate/nitrite levels” value in data set [14] is given as “did not affect plasma nitrate/nitrite levels significantly”.

In the case of `CC(C(=O)O)c1ccc(-c2ccccc2)c(F)c1` (stereo not shown) [Flurbiprofen, reference compound], the “mortality in non rodents” value in data set [5] is “caused the death of the animals”. Also, the “leukocyte adherence” value in [8] (in vivo) is given as “Unlike Ketoprofen or Flurbiprofen, (XVIII) or (XII) did not induce significant leukocyte adherence”. Besides, the inhibition at 20 mg/kg in [9] is 40%. For the same compound, the “effect on plasma nitrate/nitrite levels” value in data set [14] is on record as “did not affect plasma nitrate/nitrite levels significantly”. The “dose causing the onset of gastric damages” value in [17] is reported as ≤ 3 mg/kg.

On to `CCC(C(=O)OCCCCO[N+](=O)[O-])c1ccc(N2Cc3ccccc3C2=O)cc1` (stereo not shown) [(XXV)], for which the “GASTRO-INTESTINAL ULCERABILITY (power ratio relative to the corresponding acid)” value in [1] (setting [18]) is given as 0,30. Moreover, in data set [10], the “ANTI-AGGREG. ACTIVITY (power ratio relative to the corresponding acid)” value was 1,25. In [12], the “ANTI-INFLAM. ACTIVITY (power ratio relative to the corresponding acid)” value is 1,05.

For the compound `CC(C(=O)OCCCCO[N+](=O)[O-])c1ccc(C(=O)c2cccs2)cc1` (stereo not shown) [(XXIV)], the “GASTRO-INTESTINAL ULCERABILITY (power ratio relative to the corresponding acid)” value in data set [1] (setting [18]) was 0,35. Further, the “ANTI-AGGREG. ACTIVITY (power ratio relative to the corresponding acid)” value in data set [10] is 1,30. The “ANTI-INFLAM. ACTIVITY (power ratio relative to the corresponding acid)” value in [12] is listed as 1,20.

On to `CCc1cccc2c3c([nH]c12)C(CC)(CC(=O)OCCCCO[N+](=O)[O-])OCC3` (stereo not shown) [(XXVI)], for which the “GASTRO-INTESTINAL ULCERABILITY (power ratio relative to the corresponding acid)” value in data set [1] (setting [18]) is recorded as 0,33. The “ANTI-AGGREG. ACTIVITY (power ratio relative to the corresponding acid)” value in [10] was 1,10. Further, the “ANTI-INFLAM. ACTIVITY (power ratio relative to the corresponding acid)” value in data set [12] was 1,40.
